Results reported in patent US20230054976A1, “METHODS FOR INHIBITION OF ALPHA-SYNUCLEIN mRNA USING SMALL MOLECULES” (The Scripps Research Institute, priority 2019, published 2023).

Columns and labels:
SNCA 5′ UTR = experiment: Luciferase reporter assay, SNCA 5′ UTR, SH-SY5Y cells; type: cell-based, human
SH-SY5Y cells = experiment: Cell viability (MTS) assay; type: cell-based, human; settings: 0.25, 0.5 and 1 μM, 48 h
Description: (§1) To assess if Synucleozid has a cytotoxic effect, SH-SY5Y cells were treated with 0.25 μM to 1 μM for 48 h, and cell viability and cytotoxicity were measured using CellTiter 96 Aqueous One Solution Cell Proliferation Assay (MTS) according to the manufacturers' instructions.
as §1, with “0.25, 0.5 and” for “0.25 μM to”, “(MTS) and LDH release assay, respectively,” for “(MTS)”

[1] = target: RNA-6 (A bulge mutated to U or G bulge); experiment: Competitive binding assay (2-AP), RNA-6
Description: (§2) EC50 was calculated from Eq. (1).

[2] = test system: SNCA IRE dually labeled with Cy3 and Cy5; experiment: FRET-based ASO-Bind-Map; type: binding, human; settings: 1 μM, ASO 500 nM
Description: FRET-based ASO-Bind-Map. The SNCA IRE dually labeled with Cy3 and Cy5 dyes (100 nM) was folded by heating at 65° C. for 5 min in 1× Assay Buffer and slowly cooling to room temperature. BSA was added to the RNA solutions to a final concentration of 40 μg/mL followed by addition of compound. The mixtures were incubated at room temperature for 30 min. Fluorescence spectra were then acquired as a function of time (in kinetics mode) for 20 min using a Cary Eclips fluorescence spectrophotometer, with excitation and emission wavelengths of 532/10 nm and 668/5 nm, respectively. The ASO of interest was then added to a final concentration of 500 nM, and fluorescence spectra were acquired as described above.

[3] = target: RNA-7 (A bulge mutated to U or G bulge); experiment: Competitive binding assay (2-AP), RNA-7
Description: as §2

ferritin 5′ UTR = experiment: Luciferase reporter assay, ferritin 5′ UTR, SH-SY5Y cells; type: cell-based, human; settings: 1 μM
[4] = test system: α-synuclein pre-formed fibrils (PFFs) toxicity in SH-SY5Y cells; experiment: Cell death assay: cytoprotection against α-synuclein pre-formed fibrils (LDH); type: cell-based, human; settings: 0.25-1 μM pretreatment 24 h, 50 μg/mL PFFs 48 h
Description: Cell death assay. The cytoprotective effect of Synucleozid was tested against α-synuclein PFFs. Human α-synuclein was expressed^78 and fibrillization induced as previously described^79. SH-SY5Y cells were pretreated with Synucleozid (0.25 μM to 1 μM) for 24 h and challenged with 50 μg/mL of α-synuclein PFFs for an additional 48 h in the presence of Synucleozid. Cell death was measured using LDH (Lactate Dehydrogenase) Cytotoxicity Detection Kit (Takara) according to the manufacturer's instructions and plotted either as optical density value or as percentage changes in comparison to respective controls. Monomeric α-synuclein (50 μg/mL) challenge was used as negative control for PFF cytotoxicity. Additional details are provided in the Supporting Information.
Cell death assay. The cytoprotective effect of Synucleozid was tested against α-synuclein preformed fibrils. […] To induce fibrillization of monomertic α-synuclein, the solution was subjected to shaking at 1000 rpm at 37° C. for 7 days on a thermomixer C (Eppendorf), and formation of fibrillar α-synuclein was monitored and confirmed by thioflavin-T assay (8). […] Cell death was measured using LDH (Lactate Dehydrogenase) Cytotoxicity Detection Kit (Takara) according to the manufacturer's instructions and plotted either as optical density value or as percentage changes in comparison to respective controls. […]

[5] = test system: SH-SY5Y cells transcriptome; experiment: RNA-Seq transcriptome-wide differential expression; type: cell-based, human; settings: 48 h; Synucleozid 1.5 μM vs vehicle; siRNA 0.1 μM vs scrambled control
Description: RNA-Seq. SH-SY5Y cells were treated or transfected as described above for 48 h with Synucleozid (1.5 μM) and siRNA (0.1 μM). Total RNA was extracted using a miRNeasy Mini Kit (Qiagen, as described above) with on-column DNase I treatment. Qubit 2.0 Fluorometer (Invitrogen) was used for total RNA quantification. Quality of total RNA was assessed by using an Agilent Technologies 2100 Bioanalyzer RNA nano chip. Samples which have RNA integrity number >8.0 were used in future experiments. Probes provided by the NEBNext rRNA depletion module (catalog no.: E6310L, New England Biosciences) were used to deplete rRNA on approximate 500 ng of total RNA according to the manufacturer's recommendations. Library preparation was done with NEBNext Ultra 11 Directional RNA kit (catalog no.: E7760, New England Biosciences) according to the manufacturer's instructions. RNA samples were heated to 94° C. and simultaneously chemically fragmented in a divalent cation buffer for 15 min. Conversion of fragmented RNA to the first strand of cDNA was done with random hexamer priming and reverse transcription. To synthesize second strand, RNA template was removed and dUTP in place of dTTP was incorporated. […] Every sample with a base quality score >Q30 (<1 error per 1000 bp) generated around 20-25 million reads. Transcript abundance from these RNA samples were quantified using Kallisto (12). […]

[6] = test system: A-bulge-mutated RNA (fully paired RNA); experiment: Thermal melting experiment, fully paired RNA; type: binding
Excerpt: Thermal melting experiment.

tRNA = experiment: Competitive binding assay (2-AP), tRNA
Description: I and I0 are the observed fluorescence intensity in the presence and absence of 2-AP RNA. Δε is the difference between the fluorescence intensity in the absence and presence of infinite 2-AP RNA. […] EC50 was calculated from Eq. (1). […] The change of fluorescence intensity was fit to Eq. (2):
θ is the percentage of 2-AP RNA bound. [RNA] is the concentration of 2-AP RNA. EC50 is the EC50 of Synucleozid determined in the assay above. [Synucleozid] is the concentration of Synucleozid. Cc is the concentration of competitive RNA. Kd is competitive dissociation constant and A is a constant.

Question: For `N=C(N)c1ccc(Nc2ccc(-c3cc4ccc(C(=N)N)cc4[nH]3)cc2)cc1` [Synucleozid A], which “inhibition of translation, luciferase fused to SNCA 5′ UTR” value (SNCA 5′ UTR; 250 nM) is on record?
Answer: The value was roughly 10%.

Question: And the “inhibition of translation, luciferase fused to SNCA 5′ UTR” value (SNCA 5′ UTR; 1 μM)?
Answer: The value was roughly 40%.

Question: And the “cell viability (MTS)” value (SH-SY5Y cells)?
Answer: Its value is “no toxicity”.

Question: And the “cell viability (MTS)” value (SH-SY5Y cells; listed as Synucleozid)?
Answer: Its value is “no effect”.

Question: And the Kd [1]?
Answer: Its Kd is roughly 20 µM.

Question: What about the “reduction of avidity compared to the native IRE” value [1] of the same molecule?
Answer: The value was 10 fold.

Question: And the “reduction of ASO-induced unfolding (FRET)” value [2]?
Answer: The value was “only able to reduce the extent of unfolding induced by ASO(1-10) and ASO(40-50)”.

Question: What about the Kd [3] of the same molecule?
Answer: The Kd was roughly 20 µM.

Question: And the “reduction of avidity compared to the native IRE” value [3]?
Answer: Its value is 10 fold.

Question: And the “inhibition of translation, luciferase fused to ferritin 5′ UTR” value (ferritin 5′ UTR)?
Answer: Its value is roughly 10%.

Question: And the “cytoprotection against toxicity of α-synuclein PFFs (LDH release)” value [4]?
Answer: The value was “mitigated the toxicity induced by PFFs in a concentration dependent manner”.

Question: And the “cytoprotection against toxicity of α-synuclein PFFs (LDH release)” value ([4]; listed as Synucleozid)?
Answer: Its value is “abrogates cytotoxicity”.

Question: What about the “genes unchanged / genes detected” value [5] of the same molecule?
Answer: Its value is 19979/20034.

Question: What about the “genes unchanged, percentage” value [5] of the same molecule?
Answer: The value was 99.7%.

Question: And the “effect on thermal stability of A-bulge-mutated RNA” value [6]?
Answer: The value was “no significant effect”.

Question: What about the “competitor RNA concentration needed for recovery of 2-AP emission” value (tRNA) of the same molecule?
Answer: Its value is greater than 100 µM.
